Broadly, the Ki is a dissociation constant, usually derived from enzyme kinetics or from competition with a known ligand.

The subject of assay [1] is S. aureus. Put plainly: colony phenotype on agar plates. Type of assay: cell-based, Staphylococcus aureus. The text has this: L-161, 982 inhibits activities associated with the electron transport chain including ATP production. In addition to the sulfonamide group, the chemical structure of L 161, 982 contains a urea group connected to two aryl groups (diarylurea) (FIG. 11). Urea derivatives are commonly used as herbicides, interfering with electron transport (17). […] SCVs typically lack a functional electron transport chain and cannot produce virulence factors such as hemolysins or the antioxidant pigment staphyloxanthin [reviewed in (19)]. […] These defects are all indicative of interruption of electron transport as carotenoid formation as well as toxin production is dependent on an active electron transport (18, 20, 21). During aerobic respiration, the force required for driving ATP synthesis requires a transmembrane electrical potential (membrane potential), which is generated by the electron transport chain.

Assay [2] deals with S. aureus. Put plainly: cytoplasmic leakage assay (OD260). The assay is classed as cell-based, Staphylococcus aureus. Particulars: 50 μg/ml. The procedure: S. aureus was grown shaking at 37° C. in PBS alone, with 50 μg/ml L-161, 982 or with 4 μg/ml Chlorhexidine (positive control). The appearance of nucleic acid in culture supernatants was measured by OD260 at the indicated times. Data are expressed as change in absorbance at 260 nm compared to control (AA260). Data presented is cumulative of two independent experiments.
Cytoplasmic leakage assay. Cytoplasmic leakage assays were performed as previously described with modifications (11). Briefly, S. aureus was cultured to mid-log phase in TSB with shaking at 37° C. Bacteria were then harvested and resuspended in PBS to a concentration of ˜108/ml. Cultures were treated with L-161,982 (50 μg/ml) or Chlorhexidine (4 μg/ml), a positive control, and incubated at 37° C. with shaking. Culture supernatants were monitored over time for cytoplasmic leakage via OD260 measurements using a spectrophotometer (Biomate 3S, Thermo Scientific). For this, aliquots were removed at 0.5, 1, 2, and 3 hours and centrifuged for 5 min at 10,000×g at room temperature to remove cellular debris before taking OD260 measurements. Negative control cultures containing no drug were used to calculate change in absorbance (AA260) at each time point.

The test system of assay [3] is dual-species biofilm with C. albicans. Put plainly: biofilm formation on polystyrene (XTT, CFU). The assay is classed as cell-based, C. albicans and S. aureus. The protocol:
The effect of L-161,982 on biofilm formation was tested. Mono- and dual-species C. albicans and/or S. aureus biofilms were grown on 96-well plates for 24 h with the indicated concentration of L-161, 982. After incubation, metabolic activity of biofilms was quantified by the XTT assay (A) and then biofilms were disrupted to determine live colony forming units (CFU) (B). The results are cumulative of three independent experiments with duplicate samples. Statistics was performed using One-way ANOVA with the Tukey post-hoc test for the XTT assay. The Mann-Whitney U test was used to analyze CFU data. Significance is indicated as follows: ns—not significant, *P<0.05; *** P<0.001. Error bars represent standard deviation.
Following growth as described above, microbes were washed in phosphate-buffered saline (PBS) by centrifugation, counted on a hemocytometer, and adjusted to 2×10^7 CFU/ml in RPMI buffered with MOPS (165 mM). […]
(§1) The XTT reduction assay was used to determine the metabolic activity of biofilms following treatment with L-161, 982 (17). Briefly, wells were washed once in PBS, and plates incubated at 37° C. for 2 h with 200 μl XTT working reagent (0.5 mg/ml XTT and 1 μM Menadione) and the resulting absorbance measured at 490 nm on a microplate spectrophotometer. […]
(Tetrazolium assays rely on reduction of a dye to a coloured formazan, in cell work by metabolically active cells.)

The subject of assay [4] is S. aureus pre-formed mono-species biofilm. Put plainly: pre-formed mature biofilm (XTT, CFU). Type of assay: cell-based, Staphylococcus aureus. The procedure:
The effect of L-161, 982 on pre-formed mature biofilms was tested. Mono- and dual-species C. albicans and/or S. aureus biofilms were grown on 96-well plates for 24 h before being treated with the indicated concentration of L-161, 982 for a further 24 h. After treatment, metabolic activity of biofilms was quantified by the XTT assay (A) and then biofilms were disrupted to determine live colony forming units (CFU) (B). The results are cumulative of three independent experiments with duplicate samples. Statistics were performed using One-way ANOVA with the Tukey post-hoc test for the XTT assay. The Mann-Whitney U test was used to analyze CFU data. Significance is indicated as follows: ns—not significant, *P<0.05; *** P<0.001. Error bars represent standard deviation.
Following growth as described above, microbes were washed in phosphate-buffered saline (PBS) by centrifugation, counted on a hemocytometer, and adjusted to 2×10^7 CFU/ml in RPMI buffered with MOPS (165 mM). For monomicrobial biofilms, 50 μl of adjusted C. albicans or S. aureus culture was added to each well of a sterile 96-well cell culture polystyrene microtiter plate (1×10^6 CFU per well); to this, 50 μl of sterile RPMI+MOPS was added. For polymicrobial biofilms, 50 μl of each organism was added per well (1×10^6 CFU of each organism per well). Plates were incubated for 24 h at 37° C. to induce biofilm formation. Following confirmation of mature biofilm growth by macro- and microscopic examination, plates were washed once with 200 μl sterile saline and then 200 μl RPMI+MOPS containing L-161, 982 at various concentrations (6.25-200 μg/ml) added to each well. […]
as §1

Another assay deals with FP (Homo sapiens, UniProt P43088). Particulars: cited from earlier work.
Chain of FP (P43088 whole entry): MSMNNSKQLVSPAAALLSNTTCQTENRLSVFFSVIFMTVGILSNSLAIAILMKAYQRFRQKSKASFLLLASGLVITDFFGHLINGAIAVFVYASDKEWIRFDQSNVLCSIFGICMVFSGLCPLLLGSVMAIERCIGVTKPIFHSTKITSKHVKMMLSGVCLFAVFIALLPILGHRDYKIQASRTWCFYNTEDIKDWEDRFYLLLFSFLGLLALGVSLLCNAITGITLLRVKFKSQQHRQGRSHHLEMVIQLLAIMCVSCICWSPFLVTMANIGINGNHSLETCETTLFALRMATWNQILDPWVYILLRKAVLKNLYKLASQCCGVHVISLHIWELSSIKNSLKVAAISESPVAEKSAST
Assay [5] relates to S. aureus. Briefly: cell membrane integrity by viability (Live/Dead) staining. The assay is classed as cell-based, Staphylococcus aureus. Particulars: 6 h incubation. An excerpt:
To determine the mechanism of action of L-161, 982 against growth of Gram-positive bacteria, we first looked at its effect on cell membrane integrity using viability staining. […] A previous study had reported that the inhibitory effect of L-161, 982 on the proliferation of skeletal muscle myoblasts was due to its ability to induce production of high levels of intracellular reactive oxygen species (ROS) that could be reversed by co-treatment with the antioxidants, N-acetyl cysteine or sodium ascorbate (25).
Although the prostanoid pathway is not conserved in prokaryotes, we questioned whether L-161, 982 inhibited S. aureus growth by increasing intracellular ROS production. […] Future studies will examine other possible mechanisms of action.

Another assay has as its target human EP4 receptors (Homo sapiens, UniProt P35408). Particulars: cited from earlier work.
A further assay concerns the target EP1 (Homo sapiens, UniProt P34995). Particulars: cited from earlier work.

SMILES strings stand for the structures.

Chain of EP1 (P34995 whole entry): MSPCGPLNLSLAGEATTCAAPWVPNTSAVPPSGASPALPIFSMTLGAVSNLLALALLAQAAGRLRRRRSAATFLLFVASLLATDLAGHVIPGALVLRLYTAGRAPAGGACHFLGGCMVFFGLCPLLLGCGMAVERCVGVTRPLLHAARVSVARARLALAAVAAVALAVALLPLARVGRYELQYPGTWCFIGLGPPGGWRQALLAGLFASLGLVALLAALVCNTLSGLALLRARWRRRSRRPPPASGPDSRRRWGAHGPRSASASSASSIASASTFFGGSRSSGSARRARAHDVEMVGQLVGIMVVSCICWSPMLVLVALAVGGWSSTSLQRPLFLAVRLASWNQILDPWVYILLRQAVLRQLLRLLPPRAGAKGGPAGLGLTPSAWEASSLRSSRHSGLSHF
Chain of human EP4 receptors (P35408 whole entry): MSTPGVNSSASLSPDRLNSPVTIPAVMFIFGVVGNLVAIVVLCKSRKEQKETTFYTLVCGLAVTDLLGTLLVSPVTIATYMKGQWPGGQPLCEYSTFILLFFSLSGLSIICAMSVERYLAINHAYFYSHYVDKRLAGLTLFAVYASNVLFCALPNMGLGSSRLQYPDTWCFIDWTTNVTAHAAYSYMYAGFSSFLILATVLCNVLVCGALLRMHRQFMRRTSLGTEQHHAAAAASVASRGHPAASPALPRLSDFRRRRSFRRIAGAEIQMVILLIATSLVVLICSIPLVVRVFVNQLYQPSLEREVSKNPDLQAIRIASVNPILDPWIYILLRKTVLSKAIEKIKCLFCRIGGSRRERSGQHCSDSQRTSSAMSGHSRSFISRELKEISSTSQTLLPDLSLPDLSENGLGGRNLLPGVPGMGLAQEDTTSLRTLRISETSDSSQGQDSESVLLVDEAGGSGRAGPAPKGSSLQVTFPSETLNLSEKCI

In the case of `CCCCc1nn(-c2ccccc2C(F)(F)F)c(=O)n1Cc1ccc(-c2ccccc2S(=O)(=O)NC(=O)c2sccc2C)cc1` [L-161, 982, N-[[4′-[[3-Butyl-1,5-dihydro-5-oxo-1-[2-(trifluoromethyl)phenyl]-4H-1,2,4-triazol-4-yl]methyl][1,1′-biphenyl]-2-yl]sulfonyl]-3-methyl-2-thiophenecarboxamide], the colony phenotype entry in the assay on S. aureus [1] is given as “grew as small colonies”. The “OD260 values of culture supernatants” value with S. aureus [2] is listed as “did not increase”. For the same molecule, the “inhibitory effect in dual-species biofilm” value in assay [3] is “no inhibitory effect”. The “concentration required to weaken pre-formed mature biofilms” value in assay [4] amounted to 100 µg/mL. The “CFUs recovered from pre-formed biofilm” value in assay [4] (100 and 200 μg/ml) is “no CFUs were recovered”. Moreover, the “metabolic activity of pre-formed biofilm” value in assay [4] (all concentrations tested, 24 h treatment) is given as “no significant inhibitory effects”. In addition, the Ki at FP was 5.6 µM; on human EP4 receptors, 0.024 µM; at EP1, 17 µM. Moreover, in the assay with S. aureus [5], the cell membrane damage entry was “no evidence of cell membrane damaged”.

These data come from patent US20200352912A1, “ANTIMICROBIAL COMPOSITIONS AND METHODS OF USING THE SAME” (The Board Of Supervisors Of Louisiana State University And …, priority 2018, published 2020).
